One data set concerns the target T1, 5HT7 (h) (Homo sapiens, UniProt P34969).
T1 construct: host or cells: CHO cells
The data set can be described thus: 5HT subtype antagonism assay (Eurofins Cerep): 5HT7. In kind it is cell-based. How it is done:
The derivatives were evaluated at a concentration of 1 μM for their antagonist activity on the 5HT2A receptor (Tables 1–3)[33],[34]. Human 5HT2A stably transfected HEK293 cells (a type of cell derived from kidney embryos)[20] were seeded in a 96-well plate (Costar; 3603) at a density of 9 × 10^4 in 100 μL of minimum essential medium (Welgene; LM007-86) containing 10% dialyzed fetal bovine serum (Gibco; 30067–334) and 1% penicillin/streptomycin (Gibco; 15140-122) and kept in a 37 °C incubator for 24 h. The cells were stained with 100 μL of cytosolic calcium dye using the FLIPR calcium 6 assay solution (Molecular devices, #R8190) supplemented with 2.5 mM probenecid (Sigma; P8761) and incubated for 1 h at 37 °C. After 1 h, the designated amount of the compound was treated in each well and incubated for another 1 h at 37 °C. Then, the cells were loaded in a Flexstation 3 microplate reader (Molecular Devices; FlexStaion) and 50 μL of 5 μM 5HT (serotonin hydrochloride, Sigma; H9523) was injected from a source plate (Nunc 96-well polystyrene conical bottom MicroWell Plate, Thermo; 249662) and the fluorescence intensity (Ex/Em-485nm/ 525 nm) was measured. […]
Antagonism assay Source Stimulus Incubation Measured Detection Method […]

Data set [1] in a line: Hepatocyte stability test, human. In kind it is in vitro ADME. The conditions noted are these: both sexes, cryopreserved hepatocytes, pH 7.4, read-out: Hepatocyte stability (% remaining after 3 h). How it is done:
Hepatocyte incubations for the test compound (10 μM final concentration, n = 2 per each time point) were carried out in mouse, rat, dog, monkey and human cryopreserved hepatocytes, resuspended at a density of 0.5 million cells/ml of modified Krebs-Henseleit buffer (KHB). The information regarding the hepatocytes used in the experiment is as follows: liverPool® 10-donor mixed gender human (BioIVT, Cat.No. X008001, lot EAV), male cynomolgus monkey (BioIVT, Cat.No. M00305, lot COJ), male Beagle dog (BioIVT, Cat.No. M00205, lot USY), male Sprague Dawley rat (BioIVT, Cat.No. M00005, lot TQE) and male CD1 mouse (BioIVT, Cat.No.005052, lot LFF). In addition, the compound was also incubated with blank KHB. The final concentration of solvent (DMSO) was 0.1% of the final volume. The incubations were performed for 3 hours at 37°C and pH 7.4. Reactions were terminated at 0 and 180 minutes by the addition of 3 volumes of stop solution (acetonitrile/methanol (2:1, v/v) containing internal standard–diclofenac at 100 ng/ml). Samples (compound spiked buffer and compound spiked hepatocytes, as well as blank samples, i.e. hepatocytes with the same DMSO%) were then centrifuged and aliquots were transferred to 96-deep micronic tubes and frozen at -80 °C until LC-MS/MS analysis. […]

Data set [2] relates to HFD-fed C57BL/6J mice. The data set can be described thus: DIO mice: fasting glucose levels. In kind it is in vivo, mouse. The note with it: PO, in mg/dL (unit assumed).
The test system of data set [3] is HFD-fed C57BL/6J mice. Description: DIO mice: quantification of hepatic triglyceride. The class given is in vivo, mouse. The conditions noted are these: DIO mice; for Hepatic TG levels, Mean Diff. (Vehicle vs. treated): Dunnett's multiple comparisons test; for Hepatic TG Levels, TG per protein, group mean: PO, liver. How it is done: Liver tissues were homogenized in 5% NP-40 using FastPrep-24. To solubilize fat, the homogenates were heated to 95 °C for 5 min and cooled at 23 °C, and repeated. Triglyceride Reagent (Sigma-Aldrich) or DW was added and incubated at 37 °C for 30 min to hydrolyze TG into glycerol. For the colorimetric assay of hydrolyzed TG levels, samples were incubated with Free Glycerol Reagent (Sigma-Aldrich) at 37 °C for 5 min. Differences in absorbance at 540 nm between hydrolyzed or non-hydrolyzed TG were quantified using a glycerol standard (Sigma-Aldrich). […]

The subject of data set [4] is CDAHFD-fed C57BL/6 J mice. The data set can be described thus: CDAHFD mice: food intake. In kind it is in vivo, mouse. The conditions noted are these: amongst CDAHFD-fed groups, 12 weeks. The text has this: C57BL/6 J male mice were purchased from the Japan SLC. Inc (Hamamatsu, Japan). Mice (5 weeks old) were fed Teklad Certitied Irradiated Global 18% protein rodent diet purchased from Dooyeol Biotech Co. Ltd (Seoul, South Korea) during the acclimation period. The liver fibrosis/inflammation-induced groups were CDAHFD-fed (A06071302, Research diet). […] All animal experiments complied with the relevant ethical regulations.
Supplementary Figure 4. Food intake. Food intake of vehicle and CDAHFD-fed mice, two-way
ANOVA with the Holm-Sidak post hoc test. The data are presented as mean ± SD (n = 2 cages per
(1 picture or pasted object on this page, not shown here)

In the next data set the target is CYP1A2 (Homo sapiens, UniProt P05177). Description: in vitro.
Sequence of CYP1A2 (P05177 whole entry): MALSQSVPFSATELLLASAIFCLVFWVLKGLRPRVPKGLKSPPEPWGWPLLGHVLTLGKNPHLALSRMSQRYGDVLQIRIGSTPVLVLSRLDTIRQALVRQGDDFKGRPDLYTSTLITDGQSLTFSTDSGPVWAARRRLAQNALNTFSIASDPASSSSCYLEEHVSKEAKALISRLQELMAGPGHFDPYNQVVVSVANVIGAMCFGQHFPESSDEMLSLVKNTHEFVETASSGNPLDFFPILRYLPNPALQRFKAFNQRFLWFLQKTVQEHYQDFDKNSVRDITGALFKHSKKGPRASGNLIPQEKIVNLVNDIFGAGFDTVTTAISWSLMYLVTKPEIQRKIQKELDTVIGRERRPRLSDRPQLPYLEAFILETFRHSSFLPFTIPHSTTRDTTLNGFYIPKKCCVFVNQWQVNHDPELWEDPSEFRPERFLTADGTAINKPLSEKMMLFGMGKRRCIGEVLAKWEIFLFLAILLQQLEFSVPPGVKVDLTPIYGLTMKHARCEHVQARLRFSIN
The next data set has as its target 5HT2A (Homo sapiens, UniProt P28223). The data set can be described thus: 5HT subtype antagonism assay (selectivity panel): 5HT2A. The note with it: concentration not given.

Several values for one entry are separate records, joined by “and”; a condition that tells them apart may be missing. Identical values can stand only once. Entries after “also recorded” stand apart in the source; their conditions may differ.

T1 sequence (P34969 whole entry): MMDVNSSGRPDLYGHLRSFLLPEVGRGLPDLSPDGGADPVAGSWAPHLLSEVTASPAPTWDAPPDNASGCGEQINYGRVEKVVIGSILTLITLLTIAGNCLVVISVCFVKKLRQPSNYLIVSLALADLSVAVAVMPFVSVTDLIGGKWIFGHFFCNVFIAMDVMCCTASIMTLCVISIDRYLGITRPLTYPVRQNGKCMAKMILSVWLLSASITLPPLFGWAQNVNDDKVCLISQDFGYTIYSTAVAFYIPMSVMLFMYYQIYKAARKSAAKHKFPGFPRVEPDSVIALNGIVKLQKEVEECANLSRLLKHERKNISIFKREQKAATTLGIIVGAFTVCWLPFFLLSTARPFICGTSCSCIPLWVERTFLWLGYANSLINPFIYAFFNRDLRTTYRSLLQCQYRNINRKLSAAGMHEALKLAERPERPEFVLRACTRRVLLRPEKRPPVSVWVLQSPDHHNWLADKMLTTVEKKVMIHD
Sequence of 5HT2A (P28223 whole entry): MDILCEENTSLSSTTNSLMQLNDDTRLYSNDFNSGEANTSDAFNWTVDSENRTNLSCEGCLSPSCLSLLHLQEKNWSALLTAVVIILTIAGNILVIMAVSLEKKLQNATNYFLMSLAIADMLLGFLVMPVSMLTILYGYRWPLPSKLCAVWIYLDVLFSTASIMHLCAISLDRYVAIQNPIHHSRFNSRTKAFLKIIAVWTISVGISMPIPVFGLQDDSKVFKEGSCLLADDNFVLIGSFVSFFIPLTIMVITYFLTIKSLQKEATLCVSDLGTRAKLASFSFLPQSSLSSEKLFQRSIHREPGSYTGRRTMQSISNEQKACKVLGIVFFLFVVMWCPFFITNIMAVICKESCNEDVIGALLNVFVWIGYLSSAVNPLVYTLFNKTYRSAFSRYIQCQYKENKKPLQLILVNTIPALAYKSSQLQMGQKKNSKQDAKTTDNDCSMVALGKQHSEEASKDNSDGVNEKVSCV
Experimental for 5HT2A: 5HT2A human recombinant 100 nM 30 min., 37°C IP1 HTRF

Turning to `Cc1nc2n(c(=O)c1CCN1CCC(=C3c4ccc(Cl)cc4CCc4cccnc43)CC1)CCCC2O` (centres unmarked) [Compound 11c], the “Selectivity 7: % inhibition” value at 5HT7 (h) (concentration not given) was found to be 91%. Besides, the IC50 on 5HT7 (h) (read-out: Selectivity 7: IC50) is 100 nM. For the same compound, the amount remaining at 3 h, 10 μM in data set [1] stood at 94%. The “6hr Fasting Glucose Levels, Average 7W” value in the data set with HFD-fed C57BL/6J mice [2] (5mpk, group mean) is 158.2; in the data set with HFD-fed C57BL/6J mice [2] (5mpk, individual animals, 5 mg/kg), 172.5 and 172.0 and 150.5 and 154.0 and 119.5 and 188.0 and 151.0; with HFD-fed C57BL/6J mice [2] (10mpk, group mean), 134.9; in the data set with HFD-fed C57BL/6J mice [2] (10mpk, individual animals, 10 mg/kg) it was 116.0 and 126.0 and 147.5 and 160.5 and 170.0 and 89.5. For the same compound, the “6hr Fasting Glucose Levels, Blood Glucose Level” value in the data set with HFD-fed C57BL/6J mice [2] (5mpk, 2021.03.29, duplicate readings of individual animals, 5 mg/kg) was 173.0 and 172.0 and 155.0 and 189.0 and 149.0 and 152.0 and 158.0 and 150.0 and 127.0 and 112.0 and 181.0 and 195.0 and 140.0 and 162.0; with HFD-fed C57BL/6J mice [2] (10mpk, 2021.03.29, duplicate readings of individual animals, 10 mg/kg), 117.0 and 115.0 and 121.0 and 131.0 and 148.0 and 147.0 and 163.0 and 158.0 and 171.0 and 169.0 and 89.0 and 90.0. In addition, the entries for the “Hepatic TG levels, Mean Diff. (Vehicle vs. treated)” value in the data set on HFD-fed C57BL/6J mice [3] (5mpk) and with HFD-fed C57BL/6J mice [3] (10mpk) were 5.95 mg/g protein and 31.37 mg/g protein, respectively. In addition, the “Hepatic TG Levels, TG per protein, group mean” value amounted to 79.94 mg/g protein with HFD-fed C57BL/6J mice [3] (5mpk) and 54.51 mg/g protein with HFD-fed C57BL/6J mice [3] (10mpk). In the data set on HFD-fed C57BL/6J mice [3] (vs vehicle), the “hepatic TG concentration” value was “significant reduction; also recorded: decreased”. Besides, in data set [4], the food intake entry is “no significant difference”. Moreover, the inhibition at 10 µM against CYP1A2 is less than 1%. Besides, the “Selectivity 2 A: % inhibition” value on 5HT2A is 102%.

The values above are taken from publication PMC10799935, “Discovery of a peripheral 5HT2A antagonist as a clinical candidate for metabolic dysfunction-associated steatohepatitis” (Nature Communications, 2024).
